In ChEMBL document CHEMBL1201862, “PubChem BioAssay data set” (2004):
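Protocol summary: plate cells (96-well), add compound at 5 concentrations, incubate 48 h, interpolate endpoints linearly. Abbreviation: GI50, concentration required for 50% inhibition of growth.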 The source made the active and inactive calls. Cut-off read from the data, not from the text of the source: active = GI50 up to about 1.1 µM and inactive = higher.

Tests used:
Assay in all cases: inhibition of tumour cell growth, NCI panel, 48 h
A549 = system: A549
ACHN = system: ACHN
COLO 205 = system: COLO 205
HCT-116 = system: HCT-116
K562 = system: K562
NCI-H23 = system: NCI-H23
NCI-H522 = system: NCI-H522
OVCAR-3 = system: OVCAR-3
OVCAR-4 = system: OVCAR-4
OVCAR-8 = system: OVCAR-8
RXF 393 = system: RXF 393
SF-295 = system: SF-295
SF-539 = system: SF-539
SN12C = system: SN12C
TK-10 = system: TK-10
U-251 = system: U-251
HL-60 = system: HL-60

Measured: GI50

CCN(CC)CCCn1cnc2ncccc2c1=O
inactive: A549 > 100 µM | ACHN > 100 µM | COLO 205 > 100 µM | HCT-116 > 100 µM | K562 > 100 µM | NCI-H23 > 100 µM | NCI-H522 > 100 µM | OVCAR-3 > 100 µM | OVCAR-4 > 100 µM | OVCAR-8 > 100 µM | RXF 393 > 100 µM | SF-295 > 100 µM | SF-539 > 100 µM | SN12C > 100 µM | TK-10 > 100 µM | U-251 > 100 µM

C/C(=N/OCCC(=O)O)C1CC1
inactive: A549 > 100 µM | ACHN > 100 µM | COLO 205 > 100 µM | HCT-116 > 100 µM | HL-60 > 100 µM | K562 > 100 µM | NCI-H23 > 100 µM | NCI-H522 > 100 µM | OVCAR-3 > 100 µM | OVCAR-4 > 100 µM | OVCAR-8 > 100 µM | RXF 393 > 100 µM | SF-295 > 100 µM | SF-539 > 100 µM | SN12C > 100 µM | TK-10 > 100 µM | U-251 > 100 µM

CCOc1ccccc1/N=N/c1c(-c2ccccc2)nn(C(=O)CC(=O)Nc2cccc(C)c2)c1-c1ccccc1
inactive: A549 > 100 µM | ACHN 54.3 µM | COLO 205 > 100 µM | HCT-116 > 100 µM | HL-60 > 100 µM | K562 62.7 µM | NCI-H23 > 100 µM | NCI-H522 > 100 µM | OVCAR-3 > 100 µM | OVCAR-4 > 100 µM | OVCAR-8 > 100 µM | RXF 393 > 100 µM | SF-295 > 100 µM | SF-539 > 100 µM | SN12C > 100 µM | TK-10 > 100 µM | U-251 > 100 µM

Cc1ccc(-c2cc(=S)n(-c3ccccc3)c3[nH]c(=S)n(-c4ccccc4)c(=N)c23)cc1
inactive: A549 > 100 µM | ACHN > 100 µM | COLO 205 > 100 µM | HCT-116 > 100 µM | HL-60 > 100 µM | K562 > 100 µM | NCI-H23 > 100 µM | NCI-H522 77.8 µM | OVCAR-3 > 100 µM | OVCAR-4 > 100 µM | OVCAR-8 > 100 µM | SF-295 > 100 µM | SF-539 > 100 µM | TK-10 > 100 µM | U-251 > 100 µM

COc1cc(/C=C2\C(=O)N(C(=O)c3ccc(NC(C)=O)cc3)N=C2C)ccc1O
inactive: A549 > 100 µM | ACHN > 100 µM | COLO 205 > 100 µM | HCT-116 > 100 µM | HL-60 > 100 µM | K562 > 100 µM | NCI-H23 > 100 µM | NCI-H522 > 100 µM | OVCAR-3 > 100 µM | OVCAR-4 > 100 µM | OVCAR-8 > 100 µM | SF-295 > 100 µM | SF-539 > 100 µM | SN12C > 100 µM | TK-10 > 100 µM

CCc1ccccc1NC(=O)C1=C(C)NC(C)=C(C(=O)Nc2ccccc2CC)C1c1ccc(NC(C)=O)cc1
inactive: A549 51.1 µM | ACHN 28.5 µM | COLO 205 58.3 µM | HCT-116 35.2 µM | HL-60 14.3 µM | K562 23.1 µM | NCI-H23 42.7 µM | NCI-H522 20.8 µM | OVCAR-3 33.2 µM | OVCAR-4 35.1 µM | OVCAR-8 33.9 µM | RXF 393 17.4 µM | SF-295 54.7 µM | SF-539 25.9 µM | SN12C 29.8 µM | TK-10 > 100 µM | U-251 53.6 µM

OCC1C(/C=C/c2ccoc2)ON2CCCC12 (stereo not given)
inactive: A549 > 100 µM | ACHN > 100 µM | COLO 205 > 100 µM | HL-60 > 100 µM | NCI-H23 > 100 µM | NCI-H522 > 100 µM | OVCAR-4 > 100 µM | OVCAR-8 > 100 µM | RXF 393 > 100 µM | SF-295 > 100 µM | SF-539 > 100 µM | SN12C > 100 µM | TK-10 > 100 µM | U-251 > 100 µM

c1ccc(-c2nnc(-c3nn(-c4ccccc4)c4nc5ccccc5nc34)o2)cc1
inactive: A549 > 100 µM | ACHN 92.3 µM | COLO 205 93.8 µM | HCT-116 34.8 µM | HL-60 20.6 µM | K562 31 µM | NCI-H23 41.2 µM | NCI-H522 44.9 µM | OVCAR-3 66.8 µM | OVCAR-4 > 100 µM | OVCAR-8 51.9 µM | RXF 393 4.3 µM | SF-295 > 100 µM | SF-539 68.4 µM | SN12C > 100 µM | TK-10 > 100 µM | U-251 85.1 µM

COC1(OC)C2(Cl)C3=CCCC=C3C1(Cl)C(Cl)=C2Cl
inactive: A549 27.2 µM | ACHN 28 µM | COLO 205 18.6 µM | HCT-116 17.1 µM | HL-60 13.9 µM | K562 > 10 µM | NCI-H23 21.9 µM | NCI-H522 12.9 µM | OVCAR-3 17.4 µM | OVCAR-4 18.2 µM | OVCAR-8 32.2 µM | RXF 393 13.9 µM | SF-295 25.1 µM | SF-539 29 µM | SN12C 28.7 µM | TK-10 > 100 µM | U-251 30.3 µM
